Laboratory results as given in article PMC12064818, “A general assay platform to study protein pharmacology using ligand-dependent structural dynamics” (Nature Communications, 2025).

Target: T1, Nano luciferase (NLuc) (Oplophorus gracilirostris, UniProt Q9GV45, A31E/A60N/A81I/F95D/I117V/K70R/L54V/L99Q/M102K/N193R/P142E/Q151K/Q38R/Q45L/V71I/Y165I)
T1 construct: His tag (inferred from IMAC purification); made in house; host or cells: E. coli
Assay: Thermal shift profiles (Thermofluor assay), NLuc
Type: binding
Design: unit of the concentration uncertain
Settings: compound 100 (unit uncertain); for Thermofluor NLuc, ATP: ATP (2 mM)
Protocol: Thermal stabilization of proteins in the presence of the ligands were determined using Thermofluor technique. MicroAmp optical 384-well plates (Applied Biosystems by Life Technologies), ViiA 7 real-time PCR instrument (Applied Biosystems by Life Technologies) and SYPRO Orange (Life Technologies) were used to test the samples. […]. Proteins were added to the 384-well plate first followed by the compounds. Samples were incubated for 10 mins at room temperature and protected from light. SYPRO Orange dye was diluted to 50x from 5000x stock in a PBS buffer, and 4 µL dye was added to the each well using a multi-channel pipette. The plate was sealed with a MicroAmp optical adhesive film, centrifuged at 1500 RPM for 2 min, and then loaded onto the ViiA 7 real–time PCR instrument for fluorescence intensity measurements upon heating the sample from 25 to 95 °C at 1 °C/min increments. Data was exported to excel, fluorescence intensity data and its first derivative were normalized and plotted using GraphPad Prism to determine Tm. See Supplementary Table 3 for additional details.
Supplementary Figure 6. Comparison of SDR and Thermofluor analysis of […]
Temperature °C Temperature °C […]
Supplementary Table 3. Protocol for Thermofluor assay
Supplementary Table 3: Protocol for Therm ofluor assay
Sequence Param eter Value Description […]
3 Incubation 10 m ins Room tem perature, protected from light
4 Dye 10X Sypro Orange dye in PBS added to the sam ple
5 Centrifugation 2 m in Centrifuge for 2 m in at 1500 RPM at RT
6 Read ViiA7 Read the therm al unfolding of the protein with ViiA7 real-tim e PCR system
4 Prepare 50X dye in PBS: 1 μL Sypro Orange 5000X (Life Technologies), 99 μL ddH2O. Add 4 μL to each well Read the m elting tem perature from 25 to 95 °C using ViiA 7 real tim e PCR instrum ent by following the below instructions Perform therm al denaturation in 384-well assay plate
(i) Place the assay plate into the Applied Biosystem s ViiA7 real-tim e PCR instrum ent and open the ViiA7 RUO software.
Under Experim ental Properties, select the following param eters: Set up: […] (20 μl), Experim ent type: MELT CURVE, Reagents used to detect target sequence: OTHER, Ram p Speed: […]
(ii) Select the Define tab on the left, then select the following param eters: Target nam e: TARGET 1, Reporter: ROX, 6 Quencher: NONE, Passive Reference: NONE
(iii) Select the Assign tab on the left, then perform the following actions: Highlight all 384 wells in the assay plate and check the box next to ‘Target 1’ on the top left of the plate layout. Note: check the ‘Sam ple’ box on the lower left.
(iv) Select the Run Method tab on the left, then m ake the following changes to the default Melt Curve profile: Delete Step 2 of the default cycle, change run m ethod to “Step and Hold” with a 1:00 tim e, set the following tem peratures: an initial 2:00 hold at 25 °C (4 °C), ram ping up in increm ents of 1 ° C to a final tem perature of 95 °C (with a 2:00 hold), click on all three cam eras to activate fluorescence detection throughout the experim ent, and Select total volum e per well of 20 μl
(v) Click on the RUN tab to the left to initiate therm al denaturation.

T1 sequence (Q9GV45 other isoform, or with tags, fused parts or gaps with the stated changes): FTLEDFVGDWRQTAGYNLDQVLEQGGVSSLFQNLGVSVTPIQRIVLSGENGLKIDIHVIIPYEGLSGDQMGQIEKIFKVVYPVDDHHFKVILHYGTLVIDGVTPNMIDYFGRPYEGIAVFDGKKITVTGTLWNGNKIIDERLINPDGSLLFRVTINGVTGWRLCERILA

COc1ccc(NC(=O)C2CCN(C(=O)c3ncn4c3COC(c3ccccc3)C4)CC2)cc1Cl (stereo not drawn) [NCGC 00449919]
Thermofluor NLuc, No ATP (20.000 °C): 1
Thermofluor NLuc, ATP (20.000 °C): 0.908
Thermofluor NLuc, No ATP (20.993 °C): 0.737
Thermofluor NLuc, ATP (20.993 °C): 0.958
Thermofluor NLuc, No ATP (21.987 °C): 0.665
Thermofluor NLuc, ATP (21.987 °C): 0.992
Thermofluor NLuc, No ATP (22.980 °C): 0.636
Thermofluor NLuc, ATP (22.980 °C): 1
Thermofluor NLuc, No ATP (23.974 °C): 0.59
Thermofluor NLuc, ATP (23.974 °C): 0.981
Thermofluor NLuc, No ATP (24.967 °C): 0.577
Thermofluor NLuc, ATP (24.967 °C): 0.945
Thermofluor NLuc, No ATP (25.960 °C): 0.551
Thermofluor NLuc, ATP (25.960 °C): 0.901
Thermofluor NLuc, No ATP (26.954 °C): 0.532
Thermofluor NLuc, ATP (26.954 °C): 0.858
Thermofluor NLuc, No ATP (27.947 °C): 0.492
Thermofluor NLuc, ATP (27.947 °C): 0.821
Thermofluor NLuc, No ATP (28.940 °C): 0.484
Thermofluor NLuc, ATP (28.940 °C): 0.79
Thermofluor NLuc, No ATP (29.934 °C): 0.475
Thermofluor NLuc, ATP (29.934 °C): 0.766
Thermofluor NLuc, No ATP (30.927 °C): 0.424
Thermofluor NLuc, ATP (30.927 °C): 0.748
Thermofluor NLuc, No ATP (31.921 °C): 0.447
Thermofluor NLuc, ATP (31.921 °C): 0.735
Thermofluor NLuc, No ATP (32.914 °C): 0.416
Thermofluor NLuc, ATP (32.914 °C): 0.726
Thermofluor NLuc, No ATP (33.907 °C): 0.402
Thermofluor NLuc, ATP (33.907 °C): 0.72
Thermofluor NLuc, No ATP (34.901 °C): 0.393
Thermofluor NLuc, ATP (34.901 °C): 0.716
Thermofluor NLuc, No ATP (35.894 °C): 0.367
Thermofluor NLuc, ATP (35.894 °C): 0.71
Thermofluor NLuc, No ATP (36.887 °C): 0.355
Thermofluor NLuc, ATP (36.887 °C): 0.703
Thermofluor NLuc, No ATP (37.881 °C): 0.332
Thermofluor NLuc, ATP (37.881 °C): 0.693
Thermofluor NLuc, No ATP (38.874 °C): 0.332
Thermofluor NLuc, ATP (38.874 °C): 0.683
Thermofluor NLuc, No ATP (39.868 °C): 0.308
Thermofluor NLuc, ATP (39.868 °C): 0.672
Thermofluor NLuc, No ATP (40.861 °C): 0.311
Thermofluor NLuc, ATP (40.861 °C): 0.661
Thermofluor NLuc, No ATP (41.854 °C): 0.286
Thermofluor NLuc, ATP (41.854 °C): 0.65
Thermofluor NLuc, No ATP (42.848 °C): 0.281
Thermofluor NLuc, ATP (42.848 °C): 0.638
Thermofluor NLuc, No ATP (43.841 °C): 0.279
Thermofluor NLuc, ATP (43.841 °C): 0.624
Thermofluor NLuc, No ATP (44.835 °C): 0.247
Thermofluor NLuc, ATP (44.835 °C): 0.61
Thermofluor NLuc, No ATP (45.828 °C): 0.259
Thermofluor NLuc, ATP (45.828 °C): 0.594
Thermofluor NLuc, No ATP (46.821 °C): 0.247
Thermofluor NLuc, ATP (46.821 °C): 0.579
Thermofluor NLuc, No ATP (47.815 °C): 0.245
Thermofluor NLuc, ATP (47.815 °C): 0.563
Thermofluor NLuc, No ATP (48.808 °C): 0.238
Thermofluor NLuc, ATP (48.808 °C): 0.547
Thermofluor NLuc, No ATP (50.795 °C): 0.24
Thermofluor NLuc, ATP (50.795 °C): 0.504
Thermofluor NLuc, No ATP (51.788 °C): 0.229
Thermofluor NLuc, ATP (51.788 °C): 0.47
Thermofluor NLuc, No ATP (52.782 °C): 0.227
Thermofluor NLuc, ATP (52.782 °C): 0.422
Thermofluor NLuc, No ATP (53.775 °C): 0.227
Thermofluor NLuc, ATP (53.775 °C): 0.36
Thermofluor NLuc, No ATP (54.768 °C): 0.248
Thermofluor NLuc, ATP (54.768 °C): 0.285
Thermofluor NLuc, No ATP (55.762 °C): 0.239
Thermofluor NLuc, ATP (55.762 °C): 0.202
Thermofluor NLuc, No ATP (56.755 °C): 0.264
Thermofluor NLuc, ATP (56.755 °C): 0.122
Thermofluor NLuc, No ATP (57.748 °C): 0.317
Thermofluor NLuc, ATP (57.748 °C): 0.055
Thermofluor NLuc, No ATP (58.742 °C): 0.38
Thermofluor NLuc, ATP (58.742 °C): 0.012
Thermofluor NLuc, No ATP (59.735 °C): 0.412
Thermofluor NLuc, ATP (59.735 °C): 0
Thermofluor NLuc, No ATP (60.729 °C): 0.472
Thermofluor NLuc, ATP (60.729 °C): 0.021
Thermofluor NLuc, No ATP (61.722 °C): 0.524
Thermofluor NLuc, ATP (61.722 °C): 0.072
Thermofluor NLuc, No ATP (62.715 °C): 0.52
Thermofluor NLuc, ATP (62.715 °C): 0.145
Thermofluor NLuc, No ATP (63.709 °C): 0.568
Thermofluor NLuc, ATP (63.709 °C): 0.233
Thermofluor NLuc, No ATP (65.695 °C): 0.566
Thermofluor NLuc, ATP (65.695 °C): 0.416
Thermofluor NLuc, No ATP (66.689 °C): 0.551
Thermofluor NLuc, ATP (66.689 °C): 0.499
Thermofluor NLuc, No ATP (68.676 °C): 0.541
Thermofluor NLuc, ATP (68.676 °C): 0.632
Thermofluor NLuc, No ATP (69.669 °C): 0.515
Thermofluor NLuc, ATP (69.669 °C): 0.682
Thermofluor NLuc, No ATP (70.662 °C): 0.497
Thermofluor NLuc, ATP (70.662 °C): 0.723
Thermofluor NLuc, No ATP (71.656 °C): 0.488
Thermofluor NLuc, ATP (71.656 °C): 0.755
Thermofluor NLuc, No ATP (72.649 °C): 0.477
Thermofluor NLuc, ATP (72.649 °C): 0.781
Thermofluor NLuc, No ATP (73.643 °C): 0.428
Thermofluor NLuc, ATP (73.643 °C): 0.8
Thermofluor NLuc, No ATP (74.636 °C): 0.405
Thermofluor NLuc, ATP (74.636 °C): 0.812
Thermofluor NLuc, No ATP (75.629 °C): 0.392
Thermofluor NLuc, ATP (75.629 °C): 0.819
